Experimental findings from ChEMBL document CHEMBL1201862, “PubChem BioAssay data set” (2004) are described below.

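Following 48 hours of exposure in 96-well plates, responses at five concentrations were used to interpolate endpoints linearly. Abbreviation: GI50, concentration required for 50% inhibition of growth.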 The source made the active and inactive calls. Rule as the data show it: active = GI50 up to about 1.1 µM and inactive = higher.

Test systems include NCI-H522; UO-31; Malme-3M; A549; HL-60; SNB-75; RXF 393; HOP-62; SF-539; M14; NCI-H460; OVCAR-8; KM12; SW-620; SF-295; OVCAR-4; SNB-19; HOP-92.
Common to all, as to assay: NCI anticancer screen, dose series, 48 h

Turning to `Cc1cc(N(CCC#N)S(C)(=O)=O)ccc1C=O`, the GI50 with NCI-H522, with UO-31, in the experiment on Malme-3M, in the experiment with A549, in the experiment with HL-60 and with SNB-75 was > 100 µM (inactive) each time. Besides, the GI50 in the experiment with RXF 393, with HOP-62, with SF-539, with M14, in the experiment with NCI-H460 and in the experiment with OVCAR-8 was > 100 µM (inactive) throughout. Also, the GI50 in the experiment with KM12, with SW-620, in the experiment on SF-295, in the experiment with OVCAR-4 and with SNB-19 was > 100 µM (inactive) each time.

As to `CCC(=O)Nc1nc2c(ncn2C2OC(COC(=O)CC)C(OC(=O)CC)C2OC(=O)CC)c(=O)[nH]1` (configuration not stated), the GI50 with NCI-H522 is > 100 µM (inactive); in the experiment on UO-31 it was > 100 µM (inactive); in the experiment with Malme-3M, > 100 µM (inactive); in the experiment on A549, > 100 µM (inactive); in the experiment on HL-60 it was 46.6 µM (inactive); in the experiment with SNB-75 it was > 100 µM (inactive). Further, the GI50 in the experiment with RXF 393, with HOP-62, in the experiment on SF-539, with M14, in the experiment with NCI-H460 and with OVCAR-8 was > 100 µM (inactive) throughout. Besides, the GI50 with KM12, with SW-620, in the experiment on SF-295, in the experiment on OVCAR-4 and in the experiment with SNB-19 was > 100 µM (inactive) in each case.

As for `O=C(CCc1nnc(S)[nH]1)NC12CC3CC(CC(C3)C1)C2`, the GI50 with UO-31, in the experiment with Malme-3M, in the experiment with A549, in the experiment on HL-60, in the experiment on SNB-75 and in the experiment on HOP-92 was > 100 µM (inactive) each time. Besides, the GI50 in the experiment with RXF 393, in the experiment on HOP-62, with SF-539, with M14, in the experiment on NCI-H460 and in the experiment on OVCAR-8 was > 100 µM (inactive) throughout. Also, the GI50 in the experiment with KM12, in the experiment with SW-620, in the experiment with SF-295, in the experiment on OVCAR-4 and in the experiment on SNB-19 was > 100 µM (inactive) each time.

As for `O=CCCCC(Sc1ccccc1)Sc1ccccc1`, the GI50 in the experiment on NCI-H522 was > 100 µM (inactive); in the experiment with UO-31 it was 14.7 µM (inactive); in the experiment on A549, 29.6 µM (inactive); in the experiment on HL-60, 6.1 µM (inactive); in the experiment on SNB-75, 18.2 µM (inactive); in the experiment on RXF 393 it was > 10 µM (inactive). Besides, the GI50 in the experiment with HOP-62 is > 100 µM (inactive); in the experiment with M14, 22.9 µM (inactive); in the experiment with NCI-H460, > 10 µM (inactive); in the experiment on OVCAR-8 it was 17.4 µM (inactive); in the experiment with KM12, 33 µM (inactive); in the experiment with SW-620, 11.4 µM (inactive). For the same molecule, the GI50 with SF-295 was 18.1 µM (inactive); in the experiment on OVCAR-4, 21.7 µM (inactive); in the experiment on SNB-19, 45.4 µM (inactive).

On to `COC(=O)C(=O)C(C#N)c1ccc(CC#N)cc1` (configuration not stated), for which the GI50 in the experiment with NCI-H522, in the experiment with UO-31, in the experiment with Malme-3M, with A549, in the experiment on HL-60 and in the experiment on SNB-75 was > 100 µM (inactive) in each case. In addition, the GI50 with HOP-92, in the experiment with SF-539, in the experiment on M14, with KM12, in the experiment with SW-620 and with SF-295 was > 100 µM (inactive) each time. In addition, the GI50 in the experiment on SNB-19 was > 100 µM (inactive).

For `O=C[C@]12CC=C3OC4OC5(CCCCC5)OC4[C@H]3[C@H]1C(=O)C=CC2=O` (some centres not stated), the GI50 in the experiment on NCI-H522 was 5.9 µM (inactive); in the experiment with UO-31, 12.1 µM (inactive); with Malme-3M it was 17.6 µM (inactive); in the experiment with A549, 11.6 µM (inactive); in the experiment on HL-60 it was 0.406 µM (active); with RXF 393, 12.6 µM (inactive). For the same molecule, the GI50 in the experiment on HOP-62 is > 100 µM (inactive); in the experiment with SF-539, 3.55 µM (inactive); in the experiment on M14, 19 µM (inactive); with NCI-H460, 23.9 µM (inactive); with OVCAR-8, 17.6 µM (inactive); in the experiment with KM12, 29.4 µM (inactive). Moreover, the GI50 with SW-620 was 19.3 µM (inactive); with SF-295, 34.6 µM (inactive); with OVCAR-4 it was 16.7 µM (inactive); in the experiment on SNB-19 it was 28.4 µM (inactive).

In the case of `CCCC/C=C/C=C/C=C/CCCCCCCC(=O)OCC(COC(=O)CCCCCCC/C=C/C1C=CC(CCCC)C(C(=O)O)C1C(=O)O)OC(=O)CCCCCCC/C=C/C=C/C=C/CCCC.OCCNCO` (configuration not stated), the GI50 in the experiment on UO-31 is 20 µM (inactive); in the experiment with Malme-3M, 20.9 µM (inactive); with A549, 18.8 µM (inactive); in the experiment on HL-60 it was 21.9 µM (inactive); in the experiment with SNB-75, 19.2 µM (inactive); in the experiment on HOP-92 it was 23.8 µM (inactive). The GI50 in the experiment with HOP-62 is 18.6 µM (inactive); in the experiment on SF-539, 19 µM (inactive); in the experiment on M14 it was 15.4 µM (inactive); in the experiment on NCI-H460, 33.8 µM (inactive); in the experiment on OVCAR-8 it was 19.6 µM (inactive); in the experiment on KM12, 18.7 µM (inactive). Further, the GI50 in the experiment on SW-620 was 4.05 µM (inactive); in the experiment on SF-295, 17.8 µM (inactive); with OVCAR-4, 17 µM (inactive); with SNB-19, 20.2 µM (inactive).

In the case of `CS(=O)(=O)N(CCC#N)c1ccc(/C=C2\N=C(c3ccccc3Cl)OC2=O)cc1`, the GI50 in the experiment with NCI-H522, in the experiment on UO-31, in the experiment with Malme-3M, in the experiment on A549, in the experiment on HL-60 and in the experiment with SNB-75 was > 100 µM (inactive) in each case. The GI50 in the experiment on RXF 393, in the experiment on HOP-62, with SF-539, in the experiment with M14, in the experiment on NCI-H460 and in the experiment with OVCAR-8 was > 100 µM (inactive) each time. Besides, the GI50 in the experiment on KM12, in the experiment on SW-620, in the experiment with SF-295 and with SNB-19 was > 100 µM (inactive) each time.

In the case of `O=C1/C(=C/c2ccccc2Cl)COc2ccccc21`, the GI50 in the experiment on NCI-H522 is 16.6 µM (inactive); with UO-31, 15.1 µM (inactive); with Malme-3M, 15.5 µM (inactive); in the experiment with A549 it was 22.6 µM (inactive); with HL-60, 17.6 µM (inactive); with SNB-75, 18 µM (inactive). The GI50 in the experiment with HOP-92 is 15.1 µM (inactive); in the experiment with RXF 393 it was 15.5 µM (inactive); with HOP-62, 16.9 µM (inactive); in the experiment on SF-539, 17.3 µM (inactive); in the experiment on NCI-H460 it was 20.5 µM (inactive); with OVCAR-8, 17.2 µM (inactive). In addition, the GI50 in the experiment on KM12 was 10.8 µM (inactive); with SW-620, 5.73 µM (inactive); with SF-295 it was 19.1 µM (inactive).
